From patent US20150183737A1, “COMPOSITIONS AND METHODS FOR SUBSTRATE-SELECTIVE INHIBITION OF ENDOCANNABINOID OXYGENATION” (Vanderbilt University, priority 2012, published 2015) come the findings set out here.

Structures are written as SMILES.

This assay has as its target T1, humanized rat FAAH (Rattus norvegicus, UniProt P97612, A377T/F194Y/I491V/L192F/S435N/V495M).
T1 sequence (P97612 30-579 L192F/F194Y/A377T/S435N/I491V/V495M limits assumed): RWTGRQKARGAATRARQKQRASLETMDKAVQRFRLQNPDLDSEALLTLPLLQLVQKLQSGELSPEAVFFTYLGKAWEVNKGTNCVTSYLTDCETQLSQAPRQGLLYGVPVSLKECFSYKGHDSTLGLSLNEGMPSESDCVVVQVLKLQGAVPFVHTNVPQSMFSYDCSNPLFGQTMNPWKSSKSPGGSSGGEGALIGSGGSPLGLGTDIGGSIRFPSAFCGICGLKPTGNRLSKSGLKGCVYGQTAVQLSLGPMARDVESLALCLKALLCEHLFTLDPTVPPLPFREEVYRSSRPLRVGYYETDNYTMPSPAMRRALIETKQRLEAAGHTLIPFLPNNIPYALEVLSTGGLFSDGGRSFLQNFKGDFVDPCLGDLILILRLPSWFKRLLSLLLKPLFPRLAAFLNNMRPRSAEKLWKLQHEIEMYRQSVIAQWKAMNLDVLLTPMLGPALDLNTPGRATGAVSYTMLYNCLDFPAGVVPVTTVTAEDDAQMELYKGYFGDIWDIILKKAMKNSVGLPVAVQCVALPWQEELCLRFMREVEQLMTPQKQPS
In words: FAAH activity (Compound A). The note with it: in vitro. The assay is classed as biochemical.

Consider `COc1ccc2c(c1)c(CC(=O)N1CCOCC1)c(C)n2C(=O)c1ccc(Cl)cc1` [Compound A, 2-[1-(4-Chloro-benzoyl)-5-methoxy-2-methyl-1H-indol-3-yl]-1-morpholin-4-yl-ethanone], for which the “Inhibition of FAAH” value is given as “did not inhibit”.
